From patent publication US20240400584A1, “COMPOUNDS AND METHODS FOR MODULATING SPLICING” (REMIX THERAPEUTICS INC., priority 2021, published 2024) come the findings set out here.

For one test, the system named is SMN2. Description: Gene panel canonical junction qPCR assay, SMN2 CJ mRNA (Table 7). In kind it is cell-based. The following applies: Homo sapiens, read-out: SMN2 CJ mRNA decrease IC50. In a few lines: (§1)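 Canonical-junction transcript levels are quantified by RT-qPCR after compound treatment of K562 or A673 cells. Primers or a CY5 probe overlap the exon junction; signals are normalized to GAPDH, GUSB or PPIA and to DMSO, then scaled to a set ΔCt assay window and fitted for IC50.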

Test [1] concerns HTT. Description: Gene panel canonical junction qPCR assay, HTT CJ mRNA (Table 7). In kind it is cell-based, human. The note with it: Homo sapiens, read-out: HTT CJ mRNA decrease IC50. The essentials: as §1
A general note: Quantitative PCR measures a nucleic acid by following its amplification.

In test [2] the test system is MYB. Description: Gene panel canonical junction qPCR assay, MYB CJ mRNA (Table 7). In kind it is cell-based. The note with it: Homo sapiens, read-out: MYB CJ mRNA decrease IC50. The essentials:
as §1

Another test relates to Target C. Description: Gene panel canonical junction qPCR assay, Target C CJ mRNA (Table 7). The following applies: Homo sapiens, read-out: Target C CJ mRNA decrease IC50. In kind it is cell-based, human. The essentials: as §1
For test [3], the system named is HTT. Description: RT-qPCR splicing assay, HTT AJ/CJ mRNA. In kind it is cell-based, human. The following applies: Homo sapiens, 24 h, A673 or K562 cells; for IC50: decrease in canonical junction mRNA; for AC50: increase in alternative junction mRNA. The essentials: (§2)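 Splicing switch scored as change in CJ and AJ isoform levels, by RT-qPCR on lysates of A673 or K562 cells dosed 24 h (top concentration 10 uM, DMSO at most 0.25%). ΔΔCt relative to DMSO wells was converted to RQ and then to percentage response.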

For test [4], the system named is MYB. In words: RT-qPCR splicing assay, MYB AJ/CJ mRNA. In kind it is cell-based. The following applies: Homo sapiens, A673 or K562 cells, 24 hours; for IC50: decrease in canonical junction mRNA; for AC50: increase in alternative junction mRNA. In a few lines: as §2

The term IC50 denotes the concentration that inhibits the measured activity by half. As a reminder, the AC50 is the midpoint of the concentration-response curve, whichever way the signal moves. A lower AC50 goes with activity at low concentration.

On to `FC1(F)CC2CC(Oc3ccc4c(n3)OCc3cc(-n5nccn5)ccc3-4)CC1N2` (centres unmarked) [Compound 235, 6,6-difluoro-3-{[8-(1,2,3-triazol-2-yl)-6H-isochromeno[3,4-b]pyridin-3-yl]oxy}-8-azabicyclo[3.2.1]octane], for which the IC50 in the test with SMN2 is above 10 µM; in the test with HTT [1] it was above 10 µM; with MYB [2] it was above 10 µM; in the test on Target C it was 1 to 10 µM; in the test with HTT [3] it was above 10 µM; in the test on MYB [4], above 10 µM. The AC50 in the test with HTT [3] and in the test on MYB [4] was above 10 µM each time.
With `Fc1cc2c(cc1-c1cn[nH]c1)COc1nc(O[C@@H]3C[C@H]4CC(F)(F)[C@@H](C3)N4)ccc1-2` [Compound 236], the IC50 was below 0.1 µM in the test with SMN2; below 0.1 µM with HTT [1]; 0.1 to 1 µM in the test on MYB [2]; 0.1 to 1 µM in the test on Target C; below 0.1 µM in the test with HTT [3]; 0.1 to 1 µM in the test with MYB [4]. The AC50 with HTT [3] and with MYB [4] was below 0.1 µM each time.
Turning to `FC1(F)CC2CC(Nc3ccc4c(n3)OCc3cc(-n5nccn5)ccc3-4)CC1N2` (centres unmarked) [Compound 238, 6,6-difluoro-N-[8-(1,2,3-triazol-2-yl)-6H-isochromeno[3,4-b]pyridin-3-yl]-8-azabicyclo[3.2.1]octan-3-amine], the half-maximal inhibitory concentration (IC50) in the test on SMN2 is 1 to 10 µM; in the test on HTT [1], 0.1 to 1 µM; with MYB [2], 1 to 10 µM; in the test on Target C, 1 to 10 µM; in the test with HTT [3], 0.1 to 1 µM; in the test on MYB [4] it was 1 to 10 µM. In addition, the concentration at half-maximal activity (AC50) in the test on HTT [3] and with MYB [4] was 1 to 10 µM each time.
In the case of `CN(c1ccc2c(n1)OCc1cc(-n3nccn3)ccc1-2)C1CC2CC(F)(F)C(C1)N2` (centres unmarked) [Compound 239, 6,6-difluoro-N-methyl-N-[8-(1,2,3-triazol-2-yl)-6H-isochromeno[3,4-b]pyridin-3-yl]-8-azabicyclo[3.2.1]octan-3-amine], the half-inhibitory concentration (IC50) in the test on SMN2 fell in the range of 0.1 to 1 µM; in the test on HTT [1] it was 0.1 to 1 µM; in the test with MYB [2], 1 to 10 µM; in the test on Target C, 1 to 10 µM; in the test with HTT [3], 0.1 to 1 µM; in the test on MYB [4], 1 to 10 µM. The AC50 in the test with HTT [3] and with MYB [4] was 1 to 10 µM in each case.
Turning to `COc1cc(-c2ccc3c(c2)COc2nc(NC4CC5CC(F)(F)C(C4)N5)ccc2-3)cnn1` (centres unmarked) [Compound 240, 6,6-difluoro-N-[8-(6-methoxypyridazin-4-yl)-6H-isochromeno[3,4-b]pyridin-3-yl]-8-azabicyclo[3.2.1]octan-3-amine], the IC50 is 0.1 to 1 µM in the test on SMN2; below 0.1 µM with HTT [1]; 1 to 10 µM in the test on MYB [2]; 0.1 to 1 µM in the test on Target C; below 0.1 µM in the test on HTT [3]; 1 to 10 µM in the test on MYB [4]. Further, the AC50 was 0.1 to 1 µM in the test on HTT [3] and 1 to 10 µM in the test with MYB [4].
In the case of `FC1(F)CC2CC(Nc3ccc4c(n3)OCc3cc(-c5cn[nH]c5)ccc3-4)CC1N2` (centres unmarked) [Compound 241, 6,6-difluoro-N-[8-(1H-pyrazol-4-yl)-6H-isochromeno[3,4-b]pyridin-3-yl]-8-azabicyclo[3.2.1]octan-3-amine], the concentration for half-maximal inhibition (IC50) with SMN2, in the test on HTT [1], in the test with MYB [2], in the test with Target C, with HTT [3] and in the test with MYB [4] was 1 to 10 µM each time. The AC50 in the test on HTT [3] and in the test with MYB [4] was 1 to 10 µM throughout.
As to `COc1cc(-c2cc3c(cc2F)-c2ccc(N(C)[C@@H]4C[C@H]5CC[C@@H](C4)N5)nc2OC3)cnn1` [Compound 242], the IC50 with SMN2 is below 0.1 µM; in the test on HTT [1], below 0.1 µM; in the test on MYB [2], 0.1 to 1 µM; in the test with Target C, below 0.1 µM; in the test with HTT [3], below 0.1 µM; in the test on MYB [4], 1 to 10 µM. Also, the AC50 in the test with HTT [3] and in the test with MYB [4] was below 0.1 µM in each case.
In the case of `COc1cc(-c2cc3c(cc2F)-c2ccc(O[C@@H]4C[C@H]5CC[C@@H](C4)N5)nc2OC3)cnn1` [Compound 243], the concentration for half-maximal inhibition (IC50) in the test on SMN2 was below 0.1 µM; with HTT [1], below 0.1 µM; with MYB [2] it was 0.1 to 1 µM; in the test with Target C it was 0.1 to 1 µM; in the test on HTT [3] it was below 0.1 µM; in the test on MYB [4], 0.1 to 1 µM. Also, the concentration at half-maximal activity (AC50) was below 0.1 µM in the test on HTT [3] and 0.1 to 1 µM in the test on MYB [4].
Take `COc1cc(-c2cc3c(cc2F)-c2ccc(OC4CC(C)(C)NC(C)(C)C4)nc2OC3)cnn1` [Compound 244]: the IC50 in the test with SMN2, with HTT [1], in the test with MYB [2], in the test on Target C, in the test on HTT [3] and with MYB [4] was 0.1 to 1 µM each time. Further, the concentration at half-maximal activity (AC50) was below 0.1 µM with HTT [3] and 0.1 to 1 µM with MYB [4].
In the case of `COc1cc(-c2ccc3c(c2F)COc2nc(N(C)[C@@H]4C[C@H]5CC[C@@H](C4)N5)ccc2-3)cnn1` [Compound 245, N-((1R,3s,5S)-8-azabicyclo[3.2.1]octan-3-yl)-7-fluoro-8-(6-methoxypyridazin-4-yl)-N-methyl-6H-isoch-romeno[3,4-b]pyridin-3-amine], the IC50 with SMN2, in the test with HTT [1], with MYB [2], in the test on Target C, in the test on HTT [3] and in the test with MYB [4] was below 0.1 µM each time. Moreover, the AC50 in the test on HTT [3] and with MYB [4] was below 0.1 µM each time.
Regarding `COc1cc(-c2ccc3c(c2)COc2nc(N(C)[C@H]4C[C@H]5COC[C@@H](C4)N5)ccc2-3)cnn1` [Compound 246], the IC50 was 1 to 10 µM in the test on SMN2; above 10 µM with HTT [1]; above 10 µM in the test on MYB [2]; above 10 µM in the test on Target C; above 10 µM in the test with HTT [3]; above 10 µM with MYB [4]. For the same molecule, the half-maximal activity concentration (AC50) in the test with HTT [3] was above 10 µM; in the test on MYB [4] it was 1 to 10 µM.
`COc1cc(-c2ccc3c(c2)COc2nc(N(C)[C@H]4C[C@@H]5CC(F)(F)[C@H](C4)N5)ccc2-3)cnn1` [Compound 247, (1R,3S,5S)-6,6-difluoro-N-[8-(6-methoxypyridazin-4-yl)-6H-isochromeno[3,4-b]pyridin-3-yl]-N-methyl-8-azabicyclo[3.2.1]octan-3-amine]: the IC50 with SMN2 is below 0.1 µM; in the test on HTT [1] it was below 0.1 µM; with MYB [2] it was 0.1 to 1 µM; with Target C, 0.1 to 1 µM; with HTT [3], below 0.1 µM; in the test on MYB [4] it was 0.1 to 1 µM. In addition, the AC50 is below 0.1 µM in the test on HTT [3] and above 10 µM in the test on MYB [4].
Turning to `CN(c1ccc2c(n1)OCc1cc(-c3cn[nH]c3)ccc1-2)C1CC2CC(F)(F)C(C1)N2` (centres unmarked) [Compound 248, 6,6-difluoro-N-methyl-N-[8-(1H-pyrazol-4-yl)-6H-isochromeno[3,4-b]pyridin-3-yl]-8-azabicyclo[3.2.1]octan-3-amine], the concentration for half-maximal inhibition (IC50) was 0.1 to 1 µM in the test on SMN2; 0.1 to 1 µM in the test with HTT [1]; 1 to 10 µM in the test on MYB [2]; 1 to 10 µM with Target C; 0.1 to 1 µM in the test on HTT [3]; 1 to 10 µM with MYB [4]. Also, the AC50 lay in the range of 0.1 to 1 µM with HTT [3] and 1 to 10 µM in the test with MYB [4].
On to `c1cnn(-c2ccc3c(c2)COc2nc(N4CCC(NC5CC5)C4)ccc2-3)n1` (centres unmarked) [Compound 249, N-cyclopropyl-1-[8-(1,2,3-triazol-2-yl)-6H-isochromeno[3,4-b]pyridin-3-yl]pyrrolidin-3-amine], for which the IC50 in the test with SMN2 was 0.1 to 1 µM; in the test on HTT [1], 1 to 10 µM; in the test on MYB [2], above 10 µM; with Target C, above 10 µM; in the test on HTT [3], 1 to 10 µM; with MYB [4] it was above 10 µM. The AC50 is 1 to 10 µM with HTT [3] and above 10 µM with MYB [4].
Consider `CC(C)(C)NC1CCN(c2ccc3c(n2)OCc2cc(-n4nccn4)ccc2-3)C1` (centres unmarked) [Compound 250, N-tert-butyl-1-[8-(1,2,3-triazol-2-yl)-6H-isochromeno[3,4-b]pyridin-3-yl]pyrrolidin-3-amine 2,2,2-trifluoroacetate], for which the half-maximal inhibitory concentration (IC50) in the test with SMN2 lay within 0.1 to 1 µM; in the test on HTT [1] it was 1 to 10 µM; in the test on MYB [2], 1 to 10 µM; with Target C, 1 to 10 µM; with HTT [3], 1 to 10 µM; in the test on MYB [4], 1 to 10 µM. Besides, the values for the AC50 in the test with HTT [3] and in the test on MYB [4] were 0.1 to 1 µM and 1 to 10 µM, respectively.
For the molecule `COc1cc(-c2ccc3c(c2)COc2nc(N4CCC(NC(C)(C)C)C4)ccc2-3)cnn1` (centres unmarked) [Compound 251, N-tert-butyl-1-[8-(6-methoxypyridazin-4-yl)-6H-isochromeno[3,4-b]pyridin-3-yl]pyrrolidin-3-amine], the IC50 in the test on SMN2 is below 0.1 µM; with HTT [1], below 0.1 µM; with MYB [2], 0.1 to 1 µM; with Target C, below 0.1 µM; with HTT [3] it was below 0.1 µM; in the test with MYB [4], 0.1 to 1 µM. Further, the AC50 with HTT [3] is below 0.1 µM; in the test on MYB [4], 0.1 to 1 µM.
